Literature values in patent publication US20070281009A1, “N-Acetylglucosamine Tablet Disintegrating In Oral Cavity And Process For Producing The Same” (Yaizu Suisankagaku Industry Co., Ltd., priority 2004, published 2007).

Assays:
[1] = test system: synthesis of hyaluronic acid
[2] = test system: arthropathy; details: human, 500 mg/day or 1,000 mg/day dissolved in milk
[3] = test system: skin beauty; details: human, oral, 1,000 mg/day

Compound | Ability to promote synthesis of hyaluronic acid [1] | Effect of ameliorating arthropathy [2] | Effect on enhancing skin beauty [3]
CC1=C(/C=C/C(C)=C/C=C/C(C)=C/C=C/C=C(C)/C=C/C=C(C)/C=C/C2=C(C)CCCC2(C)C)C(C)(C)CCC1 [β-carotene] | known to have an ability to promote synthesis of hyaluronic acid |  | 
CC(=O)N[C@H]1C(O)O[C@H](CO)[C@@H](O)[C@@H]1O (stereo partly drawn) [N-acetylglucosamine] |  | confirmed to provide an effect of ameliorating arthropathy | effective
